Measurements as given in paper PMC3053401, “Renal Effects of the Novel Selective Adenosine A1 Receptor Blocker SLV329 in Experimental Liver Cirrhosis in Rats” (PLoS ONE, 2011).

What was measured:
Adenosine A3 receptor = biological target: T1, Adenosine A3 receptor (Homo sapiens, UniProt P0DMS8); experiment: radioligand displacement, filtration, Cheng-Prusoff; format: binding; conditions: [3H]AB-MECA; receptor preparation from HEK293 cells
T1 construct: gene ADORA3; cloned human receptor in HEK293 cells; cells provided by Cerep
T1 sequence (P0DMS8 1-318): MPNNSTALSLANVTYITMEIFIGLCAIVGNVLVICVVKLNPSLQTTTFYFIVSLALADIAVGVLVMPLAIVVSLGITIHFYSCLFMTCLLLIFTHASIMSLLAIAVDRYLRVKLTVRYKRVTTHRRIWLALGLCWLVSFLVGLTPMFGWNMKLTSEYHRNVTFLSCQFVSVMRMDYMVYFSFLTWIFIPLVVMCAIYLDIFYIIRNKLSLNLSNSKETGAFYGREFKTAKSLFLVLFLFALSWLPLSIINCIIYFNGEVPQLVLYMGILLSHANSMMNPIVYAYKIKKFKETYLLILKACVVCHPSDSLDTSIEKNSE
Description: radioligand displacement, filtration, Cheng-Prusoff on Adenosine A3 receptor

[1] = biological target: T2, Adenosine A1 receptor (A1R) (Homo sapiens, UniProt P30542); experiment: as above; format: binding; conditions: [3H]DPCPX; receptor preparation from CHO cells; antagonist
T2 construct: gene ADORA1; cloned human receptor in CHO cells; cells provided by Cerep
T2 sequence (P30542 1-326): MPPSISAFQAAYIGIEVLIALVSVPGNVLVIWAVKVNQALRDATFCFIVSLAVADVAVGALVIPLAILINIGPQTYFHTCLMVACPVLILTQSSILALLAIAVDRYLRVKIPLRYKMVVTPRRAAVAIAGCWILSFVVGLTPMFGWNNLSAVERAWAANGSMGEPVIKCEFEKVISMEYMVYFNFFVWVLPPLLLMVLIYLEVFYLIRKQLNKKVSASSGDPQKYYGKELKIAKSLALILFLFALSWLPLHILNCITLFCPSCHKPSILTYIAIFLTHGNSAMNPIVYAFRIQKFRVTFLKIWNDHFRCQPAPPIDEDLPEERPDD
Description: radioligand displacement, filtration, Cheng-Prusoff on Adenosine A1 receptor (A1R)

[2] = biological target: T3, Phosphodiesterase 4 enzyme; experiment: radiometric enzyme inhibition assay, scintillation counting; format: biochemical; conditions: [3H]cAMP substrate; enzyme preparation from U-937 cells
T3 construct: gene PDE4A; native enzyme preparation from U-937 cells; provided by Cerep
Description: radiometric enzyme inhibition assay, scintillation counting on Phosphodiesterase 4 enzyme

Adenosine A2A receptor = biological target: T4, Adenosine A2A receptor (Homo sapiens, UniProt P29274); experiment: radioligand displacement, filtration, Cheng-Prusoff; format: binding; conditions: [3H]CGS21680; receptor preparation from HEK293 cells
T4 construct: gene ADORA2A; cloned human receptor in HEK293 cells; cells provided by Cerep
Description: radioligand displacement, filtration, Cheng-Prusoff on Adenosine A2A receptor

[3] = biological target: T5, Phosphodiesterase 4 rolipram binding; experiment: as above; conditions: [3H]rolipram; total brain; high-affinity rolipram-binding site
T5 construct: gene Pde4a; provided by Cerep
Description: radioligand displacement, filtration, Cheng-Prusoff on Phosphodiesterase 4 rolipram binding

Adenosine A2B receptor = biological target: T6, Adenosine A2B receptor (Homo sapiens, UniProt P29275); experiment: as above; format: binding; conditions: [3H]DPCPX; receptor preparation from HEK293 cells
T6 construct: gene ADORA2B; cloned human receptor in HEK293 cells; cells provided by Cerep
T6 sequence (P29275 1-332): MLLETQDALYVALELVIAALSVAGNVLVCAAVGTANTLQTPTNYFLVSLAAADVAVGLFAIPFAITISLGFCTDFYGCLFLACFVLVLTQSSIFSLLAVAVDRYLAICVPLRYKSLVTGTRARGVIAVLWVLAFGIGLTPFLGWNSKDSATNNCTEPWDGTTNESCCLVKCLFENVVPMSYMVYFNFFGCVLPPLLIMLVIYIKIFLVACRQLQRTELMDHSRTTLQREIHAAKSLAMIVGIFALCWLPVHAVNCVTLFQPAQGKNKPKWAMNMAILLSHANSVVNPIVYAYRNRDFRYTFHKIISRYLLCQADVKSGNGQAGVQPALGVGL
Description: radioligand displacement, filtration, Cheng-Prusoff on Adenosine A2B receptor

T4 sequence (P29274 whole entry): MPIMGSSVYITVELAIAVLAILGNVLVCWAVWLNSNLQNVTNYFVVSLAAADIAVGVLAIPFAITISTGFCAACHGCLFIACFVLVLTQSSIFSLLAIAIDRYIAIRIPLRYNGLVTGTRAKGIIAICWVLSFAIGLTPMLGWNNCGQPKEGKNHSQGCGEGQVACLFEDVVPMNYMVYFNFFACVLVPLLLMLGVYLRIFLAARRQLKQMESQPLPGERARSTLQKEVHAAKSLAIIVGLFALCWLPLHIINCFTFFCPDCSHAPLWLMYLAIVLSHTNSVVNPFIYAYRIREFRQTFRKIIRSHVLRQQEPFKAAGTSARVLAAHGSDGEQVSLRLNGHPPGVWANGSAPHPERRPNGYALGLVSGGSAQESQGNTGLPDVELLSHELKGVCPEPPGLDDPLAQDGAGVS

## SLV329
Adenosine A3 receptor
  SLV329 Affinity: 6.9±0.1
[1]
  SLV329 Affinity: 9.2±0.2
[2]
  SLV329 Affinity: 5.4±0.1
Adenosine A2A receptor
  SLV329 Affinity: 7.2±0.2
[3]
  SLV329 Affinity: 6.1±0.2
Adenosine A2B receptor
  SLV329 Affinity: 6.3±0.1
